Measurements published in article PMC11649115, “In vitro safety evaluation of dopamine D3R antagonist, R-VK4-116, as a potential medication for the treatment of opioid use disorder” (PLOS ONE, 2024).
Where “and” joins values, the source holds several entries; their conditions need not be identical. Identical values can stand only once. Like-named read-outs stand apart in the source and are kept apart here.

Columns and labels:
OAT1 = target: T1, OAT1 (Homo sapiens, UniProt Q4U2R8); experiment: Transporter mediated assay (substrate/inhibitor), MDCK-II cells; format: in vitro ADME
T1 construct: expressed in transfected cells; host or cells: MDCK-II cells
T1 sequence (Q4U2R8 1-563): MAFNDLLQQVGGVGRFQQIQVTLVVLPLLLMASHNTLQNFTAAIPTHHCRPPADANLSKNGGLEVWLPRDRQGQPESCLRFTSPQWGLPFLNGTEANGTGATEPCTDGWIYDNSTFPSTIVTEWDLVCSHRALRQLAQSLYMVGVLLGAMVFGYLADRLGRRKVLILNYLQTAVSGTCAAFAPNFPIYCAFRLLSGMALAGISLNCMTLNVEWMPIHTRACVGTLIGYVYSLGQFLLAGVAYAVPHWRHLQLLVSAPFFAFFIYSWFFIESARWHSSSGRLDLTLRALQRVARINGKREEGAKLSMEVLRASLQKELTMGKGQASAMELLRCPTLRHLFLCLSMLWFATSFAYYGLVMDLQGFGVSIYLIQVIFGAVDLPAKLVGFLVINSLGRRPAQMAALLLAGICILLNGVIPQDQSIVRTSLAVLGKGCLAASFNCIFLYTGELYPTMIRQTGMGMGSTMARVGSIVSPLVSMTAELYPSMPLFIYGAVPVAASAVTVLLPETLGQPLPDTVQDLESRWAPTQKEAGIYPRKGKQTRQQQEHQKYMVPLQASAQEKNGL
Description: The MDCK-II cells were treated to express the transporter of interest. The transport of each probe substrate was determined by radiometric detection (Fig 1 in S1 File). […] For the uptake assay, the net transporter-mediated uptake-rate (V) of the substrate by each SLC transporter was calculated as follows: Transporter–mediatedupdaterate(pmol/min/cm^2)=(Cellularaccumulationincellsexpressingthetransporter)−(Meancellularaccumulationincontrolcells)/Surfacearea×incubationtime

[1] = Plasma protein binding, Sephadex G-25 gel filtration; format: in vitro ADME, human; settings: human, plasma; for fraction unbound at 2 h, 0.5 μM: human plasma, nominal 0.5 μM
Description: (§1) The gel filtration used solid-phase extraction columns containing hydrated gel filtration beads (Sephadex G-25). […] In this method, the amount of analyte accompanying the proteins (i.e., protein-bound R-VK4-116) before and after filtration was assayed for analyte concentration by LC-MS/MS.

plasma proteins = experiment: as above; format: in vitro ADME, human; settings: human, plasma, human plasma, nominal 1 μM; read-out: % Bound, Mean ± SD (converted)
Description: as §1

human plasma proteins = experiment: as above; format: in vitro ADME; settings: human plasma
Description: as §1

SRPK2 = target: T2, SRPK2 (Homo sapiens, UniProt P78362); experiment: KINOMEscan binding (% Ctrl, Kd)
T2 construct: made in house; host or cells: E. coli BL21-derived host (T7 phage) or HEK-293
Description: Briefly, E. coli host derived from the BL21 strain were grown to log-phase and infected with kinase-tagged T7 phage and incubated with shaking at 32°C until lysis. The lysates were centrifuged and filtered to remove cell debris. The remaining kinases were produced in HEK-293 cells and subsequently tagged with DNA for qPCR detection. Streptavidin-coated magnetic beads were treated with biotinylated small molecule ligands to generate affinity resins for kinase assays. The liganded beads were blocked with excess biotin and washed to remove unbound ligand and to reduce non-specific phage binding. […] Selectivity Score (S-score) was a quantitative measure of compound selectivity. […] The binding constants (Kds) were also determined with a standard dose-response curve using the Hill equation and Levenberg-Marquardt algorithm [24, 25].

P-gp = target: T3, P-gp (Homo sapiens, UniProt P08183); experiment: Transporter mediated assay (substrate/inhibitor), MDCK-II cells; format: in vitro ADME; settings: human
T3 construct: expressed in transfected cells; host or cells: MDCK-II cells
Description: The MDCK-II cells were treated to express the transporter of interest.
For BCRP and P-gp, the apparent permeability Papp and Efflux Ratio (ER) were calculated [16]. Net basal (B) to apical (A) flux (B → A) of the substrate transport (pmol/min/cm^2) by BCRP or P-gp was calculated by subtracting A → B flux from B → A flux.

[2] = Metabolic stability in liver microsomes; settings: monkey, pH 7.4
CYP2D6 = CYP2D6 (Homo sapiens, UniProt P10635); experiment: CYP phenotyping, recombinant CYP; format: in vitro ADME; design: purchased XenoTech, LLC, Kansas City, KS; host or cells: bactosomes (bacterial membranes); settings: recombinant CYP2D6, pH 7.4, incubated with CYP2D6, 1 μM, 120 min
Description: (§2) CYP phenotyping involved the identification of CYP isoforms, which involved in the metabolism of R-VK4-116 using recombinant CYP1A2, CYP2B6, CYP2C8, CYP2C9, CYP2C19, CYP2D6, and CYP3A4 (XenoTech, LLC, Kansas City, KS), followed by determination of the Km and Vmax for the metabolites formed by the major CYP isoforms. […] In addition, R-VK4-116 was also incubated with all components in the absence of NADPH. […] Following brief vortexing and centrifugation, 50 μl of supernatant was mixed with 450 μl of 25:75:0.2 acetonitrile/water/formic acid for analysis by LC-MS/MS to determine the remaining R-VK4-116 at each time point based on peak area ratio (PAR) of R-VK4-116 to IS. As a positive control, the known substrate of each individual CYP isoform (phenacetin for CYP1A2, bupropion for CYP2B6, paclitaxel for CYP2C8, diclofenac for CYP2C9, diazepam for CYP2C19, bufuralol for CYP2D6, and testosterone for CYP3A4) was also incubated.

CYP3A4 = CYP3A4 (Homo sapiens, UniProt P08684); experiment: CYP phenotyping, recombinant CYP; format: in vitro ADME; design: purchased XenoTech, LLC, Kansas City, KS; host or cells: bactosomes (bacterial membranes); settings: recombinant CYP3A4, pH 7.4, incubated with CYP3A4, 1 μM, 120 min
Description: as §2

[3] = MDCK-MDR1, P-gp, substrate test, 1 µM
[4] = heat-inactivated liver microsomes

T2 sequence (P78362 whole entry): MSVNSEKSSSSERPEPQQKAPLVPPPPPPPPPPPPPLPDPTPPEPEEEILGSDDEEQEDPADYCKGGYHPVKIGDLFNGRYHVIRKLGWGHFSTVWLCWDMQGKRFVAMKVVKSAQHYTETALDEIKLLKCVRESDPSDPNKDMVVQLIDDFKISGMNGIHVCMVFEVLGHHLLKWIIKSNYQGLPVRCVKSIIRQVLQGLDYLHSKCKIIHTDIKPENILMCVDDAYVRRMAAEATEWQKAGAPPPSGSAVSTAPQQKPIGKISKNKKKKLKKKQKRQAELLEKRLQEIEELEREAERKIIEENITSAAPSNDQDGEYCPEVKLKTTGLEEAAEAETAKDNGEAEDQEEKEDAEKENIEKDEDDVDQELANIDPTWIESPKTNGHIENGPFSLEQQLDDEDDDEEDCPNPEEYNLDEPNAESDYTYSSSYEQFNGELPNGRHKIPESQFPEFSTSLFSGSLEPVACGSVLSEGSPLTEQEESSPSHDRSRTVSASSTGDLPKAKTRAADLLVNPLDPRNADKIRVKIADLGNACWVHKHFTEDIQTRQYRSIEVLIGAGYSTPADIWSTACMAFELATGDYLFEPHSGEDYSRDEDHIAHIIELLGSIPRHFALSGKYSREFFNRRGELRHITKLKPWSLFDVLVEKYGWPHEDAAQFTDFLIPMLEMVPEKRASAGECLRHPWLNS
T3 sequence (P08183 whole entry): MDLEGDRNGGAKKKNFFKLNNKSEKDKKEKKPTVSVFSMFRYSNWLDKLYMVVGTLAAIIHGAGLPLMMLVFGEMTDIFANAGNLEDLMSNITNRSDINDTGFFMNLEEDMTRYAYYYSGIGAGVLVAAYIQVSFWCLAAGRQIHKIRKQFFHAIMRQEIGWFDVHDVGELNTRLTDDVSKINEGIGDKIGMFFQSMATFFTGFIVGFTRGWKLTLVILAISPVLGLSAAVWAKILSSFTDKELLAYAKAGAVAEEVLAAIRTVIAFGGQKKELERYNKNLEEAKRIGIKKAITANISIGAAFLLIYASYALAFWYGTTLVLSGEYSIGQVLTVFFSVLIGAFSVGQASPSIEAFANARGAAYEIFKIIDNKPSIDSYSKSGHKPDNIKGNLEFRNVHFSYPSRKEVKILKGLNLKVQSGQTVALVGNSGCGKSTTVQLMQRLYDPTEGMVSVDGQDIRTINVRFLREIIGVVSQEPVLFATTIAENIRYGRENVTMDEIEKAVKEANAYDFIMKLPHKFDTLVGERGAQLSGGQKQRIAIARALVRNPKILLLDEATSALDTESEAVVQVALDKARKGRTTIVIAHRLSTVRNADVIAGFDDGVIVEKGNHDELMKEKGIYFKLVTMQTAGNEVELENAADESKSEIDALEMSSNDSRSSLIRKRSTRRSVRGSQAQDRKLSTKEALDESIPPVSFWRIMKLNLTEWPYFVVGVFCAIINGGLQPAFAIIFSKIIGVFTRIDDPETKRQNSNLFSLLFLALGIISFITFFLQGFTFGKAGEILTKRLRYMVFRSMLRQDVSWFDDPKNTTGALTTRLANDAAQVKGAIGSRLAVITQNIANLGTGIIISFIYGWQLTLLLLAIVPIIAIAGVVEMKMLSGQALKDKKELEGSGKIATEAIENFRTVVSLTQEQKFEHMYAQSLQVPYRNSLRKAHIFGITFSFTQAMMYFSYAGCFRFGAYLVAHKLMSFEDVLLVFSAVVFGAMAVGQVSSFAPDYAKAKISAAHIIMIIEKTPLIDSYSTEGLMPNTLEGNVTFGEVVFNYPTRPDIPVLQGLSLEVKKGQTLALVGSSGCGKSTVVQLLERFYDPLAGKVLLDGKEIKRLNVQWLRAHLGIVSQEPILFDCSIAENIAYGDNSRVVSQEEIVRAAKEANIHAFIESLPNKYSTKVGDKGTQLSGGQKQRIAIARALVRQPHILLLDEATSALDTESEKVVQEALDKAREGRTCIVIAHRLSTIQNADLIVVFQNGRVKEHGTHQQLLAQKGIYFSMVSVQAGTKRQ
Sequence of CYP2D6 (P10635 whole entry, canonical isoform): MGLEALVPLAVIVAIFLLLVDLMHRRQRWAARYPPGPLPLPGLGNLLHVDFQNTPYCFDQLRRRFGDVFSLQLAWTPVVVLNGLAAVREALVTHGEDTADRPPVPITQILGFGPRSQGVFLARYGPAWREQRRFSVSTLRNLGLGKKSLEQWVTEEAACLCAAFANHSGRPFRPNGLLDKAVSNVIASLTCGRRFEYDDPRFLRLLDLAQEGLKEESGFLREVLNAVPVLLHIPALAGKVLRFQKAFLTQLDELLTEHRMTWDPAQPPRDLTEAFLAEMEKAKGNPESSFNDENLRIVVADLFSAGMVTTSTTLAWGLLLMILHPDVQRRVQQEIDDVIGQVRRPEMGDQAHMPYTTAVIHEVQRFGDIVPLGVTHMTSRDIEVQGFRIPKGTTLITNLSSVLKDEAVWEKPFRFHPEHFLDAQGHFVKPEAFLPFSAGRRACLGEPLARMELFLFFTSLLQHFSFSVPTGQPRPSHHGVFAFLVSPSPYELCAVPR
Sequence of CYP3A4 (P08684 whole entry): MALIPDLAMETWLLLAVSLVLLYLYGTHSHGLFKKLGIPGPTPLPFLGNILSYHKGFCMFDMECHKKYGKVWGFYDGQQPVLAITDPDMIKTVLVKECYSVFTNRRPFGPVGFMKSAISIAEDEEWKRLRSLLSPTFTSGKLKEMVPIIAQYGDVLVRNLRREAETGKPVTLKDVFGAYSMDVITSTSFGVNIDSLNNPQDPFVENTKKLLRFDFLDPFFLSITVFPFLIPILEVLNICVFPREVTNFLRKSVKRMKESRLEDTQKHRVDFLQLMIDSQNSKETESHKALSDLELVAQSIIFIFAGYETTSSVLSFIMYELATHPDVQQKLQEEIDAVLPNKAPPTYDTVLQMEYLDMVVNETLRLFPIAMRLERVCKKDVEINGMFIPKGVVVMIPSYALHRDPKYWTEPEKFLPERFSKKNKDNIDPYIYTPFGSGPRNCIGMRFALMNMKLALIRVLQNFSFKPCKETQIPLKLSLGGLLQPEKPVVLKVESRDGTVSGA

In the case of `CCc1cc(Cl)c(OC)c(N2CCN(CC(O)CCNC(=O)c3cc4ccccc4[nH]3)CC2)c1` (centres unmarked) [R-VK4-116, N-(4-(4-(3-chloro-5-ethyl-2-methoxyphenyl)piperazin-1-yl)-3-hydroxybutyl)-1H-indole-2-carboxamide], the “fold difference in mean uptake rate (substrate test)” value (OAT1; OAT1, 1 μM, transporter cells vs control cells) is reported as < 2 fold, the “Inhibition (%)” value (OAT1; OAT1, 0.1% BSA, 10 μM) is reported as “no statistically significant inhibition” and the inhibition at 10 µM (OAT1; human, polarized monolayer of MDCK-II cells expressing OAT1, OAT1, 0.1% BSA, 10 μM) is reported as 8.97 ± 1.58%. It also gave a fraction unbound at 2 h, 0.5 μM ([1]; read-out: % Bound (converted)) of 0.026, a fraction unbound at 2 h, 0.5 μM ([1]; read-out: % Bound, Mean ± SD (converted)) of 0.028 and a fraction unbound at 2 h ([1]; rat, dog, range over human, rat and dog plasma, read-out: bound to plasma proteins) of 0.07 to 0.17. The fraction unbound at 2 h, 1 μM (plasma proteins) was 0.141, the “% Bound” value (human plasma proteins; nominal 0.5 μM) was 96.9% and the “Ratio [R-VK4-116] Before Filtration / Eluate, Mean ± SD” value (human plasma proteins; nominal 0.5 μM) was 0.988 ± 0.13. For the same compound, the “[R-VK4-116] Before Filtration” value (human plasma proteins; nominal 0.5 μM) was 0.550 µM and 0.597 µM and 0.598 µM, the “[R-VK4-116] In Sephadex G-25 Eluate” value (human plasma proteins; nominal 0.5 μM) was 0.520 µM and 0.715 µM and 0.557 µM and the “% Bound” value (human plasma proteins; nominal 1 μM) was 92.5% and 81.6% and 83.7%. The “Ratio [R-VK4-116] Before Filtration / Eluate” value (human plasma proteins; nominal 1 μM) was 1.50 and 1.62 and 1.55, the “Ratio [R-VK4-116] Before Filtration / Eluate, Mean ± SD” value (human plasma proteins; nominal 1 μM) was 1.56 ± 0.06 and the “[R-VK4-116] Before Filtration” value (human plasma proteins; nominal 1 μM) was 0.923 µM and 0.995 µM and 1.02 µM. For the same compound, the “[R-VK4-116] In Sephadex G-25 Eluate” value (human plasma proteins; nominal 1 μM) was 0.614 µM and 0.615 µM and 0.657 µM, the Kd (SRPK2; 11-point curve 0.001 to 10 μM, read-out: binding constant (Kd)) was > 10 µM and the remaining binding at 1 µM (SRPK2; read-out: %Control) was < 35%. For the same compound, the remaining binding at 1 µM (SRPK2; read-out: Gene (S-score with % control): SRPK2) was 21%, the Papp A→B at 1 µM (P-gp; [3]) was < 0.2 ×10⁻⁶ cm/s and the Papp B→A at 1 µM (P-gp; [3]) was < 0.1 ×10⁻⁶ cm/s. The inhibition at 10 µM (P-gp; probe quinidine 0.1 μM) was 56.5 ± 6.17%, the remaining at 0 h, 1 μM [2, 4] was 100% and the remaining at 0 h, 10 μM [2, 4] was 100%. The remaining at 2 h, 1 μM [2, 4] was 90%, the remaining at 2 h, 10 μM [2, 4] was 89.9% and the remaining at 0 h, 1 μM ([2]; liver microsomes) was 100%. It also gave a remaining at 0 h, 10 μM ([2]; liver microsomes) of 100%, a remaining at 0.5 h, 1 μM ([2]; liver microsomes) of 32% and a remaining at 0.5 h, 10 μM ([2]; liver microsomes) of 60.1%. It also gave a remaining at 1 h, 1 μM ([2]; liver microsomes) of 21.2%, a remaining at 1 h, 10 μM ([2]; liver microsomes) of 46.5% and a remaining at 1.5 h, 1 μM ([2]; liver microsomes) of 17.5%. It also gave a remaining at 1.5 h, 10 μM ([2]; liver microsomes) of 42.1%, a remaining at 2 h, 1 μM ([2]; liver microsomes) of 15% and a remaining at 2 h, 10 μM ([2]; liver microsomes) of 39.7%. It also gave a remaining at 2 h, 1 μM (CYP2D6) of 40.6% and a remaining at 2 h, 1 μM (CYP3A4) of 25.6%.
